Entries after “also recorded” stand apart in the source; their conditions may differ.
Columns and labels:
yeast α-glucosidase = yeast α-glucosidase inhibition assay (pNPG substrate); format: biochemical; settings: yeast enzyme, 37 °C
Experimental: (§1) The in vitro enzyme inhibition assays for the two enzymes, i.e., α-glucosidase and α-amylase, were performed according to the previous studies.
The yeast α-glucosidase inhibition assay was performed using pNPG as substrate. An amount of 100 µL of enzyme was then added to the mixture, and the reaction was incubated at 37 °C for 10 min. After adding 0.5 mM pNPG solution, the reaction continued at 37 °C for 20 min. The enzyme activity was determined by measuring the absorbance of the liberated p-nitrophenol at 405 nm using a microplate spectrophotometer. The results were expressed as a percentage of α-glucosidase inhibition, calculated using the formula “Inhibition (%) = (A control − A sample)/A control × 100”. The final results of the enzyme inhibition assay are represented as IC50 values which refers to the concentration required to block 50% of α-glucosidase activity under the test conditions.

[1] = target: T1, type-VI B porcine pancreatic α-amylase (Sus scrofa, UniProt P00690); test: α-amylase inhibition assay (starch substrate, DNS reagent); format: biochemical; settings: porcine pancreatic enzyme, 25 °C, read-out: IC50 (mean ± SD) α-Amylase (converted)
T1 construct: performed using type-VI B porcine pancreatic α-amylase, with starch as a substrate; from tissue; host or cells: porcine pancreas
T1 sequence (P00690 16-511): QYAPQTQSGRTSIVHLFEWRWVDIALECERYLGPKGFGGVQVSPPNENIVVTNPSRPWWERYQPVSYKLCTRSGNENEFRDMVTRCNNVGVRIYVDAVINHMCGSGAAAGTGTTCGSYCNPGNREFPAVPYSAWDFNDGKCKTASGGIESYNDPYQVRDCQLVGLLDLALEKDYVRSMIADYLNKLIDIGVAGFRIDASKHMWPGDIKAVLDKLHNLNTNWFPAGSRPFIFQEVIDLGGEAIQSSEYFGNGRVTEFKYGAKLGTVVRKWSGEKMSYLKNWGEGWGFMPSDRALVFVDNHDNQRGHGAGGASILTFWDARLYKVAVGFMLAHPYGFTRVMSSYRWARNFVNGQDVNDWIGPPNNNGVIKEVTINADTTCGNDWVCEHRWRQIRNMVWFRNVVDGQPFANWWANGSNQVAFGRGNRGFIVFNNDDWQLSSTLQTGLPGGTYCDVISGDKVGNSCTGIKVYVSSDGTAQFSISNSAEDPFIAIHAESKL
Experimental: as §1
The α-amylase inhibition activity was performed using type-VI B porcine pancreatic α-amylase, with starch as a substrate. The enzyme was dissolved in sodium phosphate buffer and the test compound was added at different concentrations. […] The reaction was terminated by adding a DNS reagent and kept in a boiling water bath for 5 min. The resulting mixture was diluted and absorbance was measured at 540 nm using a microplate spectrophotometer.

HEK293 cells = format: cell-based; settings: for cytotoxicity against HEK293 cell lines (in words): MTT, 48 h, 250, 500 and 1000 µg/mL, even at the highest concentration (1000 µg/mL)
Experimental: The Human Embryonic Kidney (HEK-293) cell lines were cultured in Dulbecco’s Modified Eagle Medium (DMEM) supplemented with 10% fetal bovine serum (FBS). The cells were maintained at 37 °C in a humidified atmosphere of 5% CO2. The adherent cells were grown to 70–80% confluency and then harvested by trypsinization (0.25%). The test compounds were dissolved in DMSO and used for all the experiments. DMSO (0.1%) was used as vehicle control and cells cultured in a complete medium without compound served as control.
Briefly, 5 × 10^3 cells (HEK293 cells) were seeded and allowed to adhere overnight. […] Post 48 h, the cells were exposed to MTT (5 mg/mL in phosphate-buffered saline). The formazan crystals were dissolved in DMSO and the absorption was measured at 570 nm using a microplate reader (Tecan Spark, Switzerland). The percentage viability of the cells was determined.

| Compound | IC50 (mean ± SD) α-Glucosidase (yeast α-glucosidase) | IC50 [1] | melting point | cytotoxicity against HEK293 cell lines (in words) (HEK293 cells) | cell death (HEK293 cells; HEK293, MTT, 25 µg/mL) |
| --- | --- | --- | --- | --- | --- |
| COc1ccccc1/C=C/C(=O)c1ccc2c(c1)nc(-c1cc(OC)c(OC)c(OC)c1)n2C [Compound 7i] | 33.20 ± 0.60 J·µg/mL | 52.8 µM | 176 to 178 °C |  |  |
| COc1cc(-c2nc3cc(C(=O)/C=C/c4ccc(C)cc4)ccc3n2C)cc(OC)c1OC [Compound 7h] | 36.22 ± 0.58 l µg/mL | 68.9 µM | 168 to 170 °C |  |  |
| COc1ccc(-c2nc3cc(C(=O)/C=C/c4cc(OC)c(OC)c(OC)c4)ccc3n2C)cc1OC [Compound 7f] | 28.75 ± 0.12 f µg/mL | 76.4 µM | 127 to 129 °C |  |  |
| COc1ccc(/C=C/C(=O)c2ccc3c(c2)nc(-c2ccc(OC)c(OC)c2)n3C)cc1 [Compound 7d] | 26.32 ± 0.52 µg·days/mL | 85 µM | 98 to 100 °C |  |  |
| COc1ccc(/C=C/C(=O)c2ccc3c(c2)nc(-c2ccc(OC)c(OC)c2)n3C)cc1OC [Compound 7e] | 23.88 ± 0.55 b µg/mL | 75.1 µM |  | negligible cytotoxicity |  |
| COc1cc(/C=C/C(=O)c2ccc3c(c2)nc(-c2cc(OC)c(OC)c(OC)c2)n3C)cc(OC)c1OC [Compound 7l, (E)-1-(1-methyl-2-(3,4,5-trimethoxyphenyl)-1H-benzo[d]imidazol-5-yl)-3-(3,4,5-trimethoxyphenyl)prop-2-en-1-one] | 22.45 ± 0.36 a µg/mL | 39.5 µM |  | negligible cytotoxicity; also recorded: without exerting toxicity |  |
| COc1cc(-c2nc3cc(C(=O)/C=C/c4ccccc4Cl)ccc3n2C)cc(OC)c1OC [Compound 7g] | 29.28 ± 0.35 g µg/mL | 61.7 µM | 183 to 184 °C |  |  |
| COc1ccc(-c2nc3cc(C(=O)/C=C/c4ccccc4Cl)ccc3n2C)cc1OC [Compound 7a] | 1.26 ± 0.00583 µg·days/mL | 92.7 µM | 148 to 150 °C |  |  |
| COc1ccc(/C=C/C(=O)c2ccc3c(c2)nc(-c2cc(OC)c(OC)c(OC)c2)n3C)cc1 [Compound 7j] | 27.21 ± 0.36 e µg/mL | 85.6 µM | 142 to 144 °C |  |  |
| COc1ccc(-c2nc3cc(C(=O)/C=C/c4ccc(C)cc4)ccc3n2C)cc1OC [Compound 7b] | 32.10 ± 0.96 i µg/mL | 81 µM |  | negligible cytotoxicity |  |
| COc1ccc(/C=C/C(=O)c2ccc3c(c2)nc(-c2cc(OC)c(OC)c(OC)c2)n3C)cc1OC [Compound 7k] | 29.30 ± 0.21 g µg/mL | 84.4 µM | 137 to 139 °C |  |  |
| CO[C@@]12[C@H](COC(N)=O)C3=C(C(=O)C(C)=C(N)C3=O)N1C[C@@H]1N[C@@H]12 [Mitomycin, reference compound] |  |  |  |  | around 60% |
| COc1ccccc1/C=C/C(=O)c1ccc2c(c1)nc(-c1ccc(OC)c(OC)c1)n2C [Compound 7c] | 25.21 ± 0.13 c µg/mL | 91.9 µM | 159 to 161 °C |  |  |
